Assay results reported in patent US20110257148A1, “NOVEL 1-ALKYL-3-HYDROXY-3-PHENYLAZETIDINE DERIVATIVES USEFUL AS MODULATORS OF CORTICAL CATECHOLAMINERGIC NEUROTRANSMISSION” (NSAB, FILIAL AF N[…] AB, SVERIGE, priority 2008, published 2011).
Where a name gives a salt, the structure may show the parent alone.

Compound | melting point [°C]
CC(C)N1CC(O)(c2cc(F)cc(F)c2)C1 (as salt: fumaric acid salt) | 185 to 186
CCCN1CC(O)(c2cc(F)cc(Cl)c2)C1 (as salt: fumaric acid salt) | 147 to 149
CCCN1CC(O)(c2cccc(Cl)c2F)C1 (as salt: fumaric acid salt) [Example 6, 3-(3-Chloro-2-Fluorophenyl)-1-Propylazetidin-3-Ol] | 167 to 168

The next lines start with the values.

melting point [°C] | Compound
161 to 165 | CCCN1CC(O)(c2cccc(F)c2F)C1 (as salt: fumaric acid salt) [Example 1, 3-(2,3-DIFLUOROPHENYL)-1-PROPYLAZETIDIN-3-OL]
157 to 159 | CCCN1CC(O)(c2ccc(F)c(F)c2)C1 (as salt: fumaric acid salt)
162 to 164 | CCCN1CC(O)(c2cc(F)cc(F)c2)C1 (as salt: fumaric acid salt)
